Laboratory results taken from article PMC6001238, “Iterative Chemical Engineering of Vancomycin Leads to Novel Vancomycin Analogs With a High in Vitro Therapeutic Index” (Frontiers in Microbiology, 2018).
Converted amounts (≈) assume the structure as drawn.

Experiments:
E. faecalis VSE 1 = experiment: MIC, broth microdilution, vancomycin-sensitive E. faecalis (VSE 1); assay type: cell-based, Enterococcus faecalis; conditions: for MIC: Enterococcus faecalis VSE 1 (vancomycin-sensitive), read-out: MIC; for MIC-fold improvement vs. vancomycin: VSE 1, ratio of MIC of vancomycin and MIC of analogue
Summary of the method: (§1)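 MIC values come from broth microdilution run to CLSI susceptibility-testing standards. Ultrapure water and uninoculated broth served as controls. In one series, vancomycin at a final 10 μM was co-dosed with the analogue or comparator antibiotic.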

E. faecalis VRE 6 = experiment: MIC, broth microdilution, vancomycin-resistant E. faecalis VRE 6 (VanA); assay type: cell-based, Enterococcus faecalis; conditions: for MIC: Enterococcus faecalis VRE 6 (vancomycin-resistant), read-out: MIC; for MIC-fold improvement vs. vancomycin: VRE 6, ratio of MIC of vancomycin and MIC of analogue
Summary of the method: as §1

E. faecalis VRE 53 = experiment: MIC, broth microdilution, vancomycin-resistant E. faecalis VRE 53 (VanA); assay type: cell-based, Enterococcus faecalis; conditions: for MIC: Enterococcus faecalis VRE 53 (vancomycin-resistant), read-out: MIC; for MIC-fold improvement vs. vancomycin: VRE 53, ratio of MIC of vancomycin and MIC of analogue
Summary of the method: as §1

E. faecalis VRE 29 = experiment: MIC, broth microdilution, vancomycin-resistant E. faecalis VRE 29 (VanA); assay type: cell-based, Enterococcus faecalis; conditions: for MIC: Enterococcus faecalis VRE 29 (vancomycin-resistant), read-out: MIC; for MIC-fold improvement vs. vancomycin: VRE 29, ratio of MIC of vancomycin and MIC of analogue
Summary of the method: as §1

E. faecalis VRE 37 = experiment: MIC, broth microdilution, vancomycin-resistant E. faecalis VRE 37 (VanA); assay type: cell-based, Enterococcus faecalis; conditions: for MIC: Enterococcus faecalis VRE 37 (vancomycin-resistant), read-out: MIC; for MIC-fold improvement vs. vancomycin: VRE 37, ratio of MIC of vancomycin and MIC of analogue
Summary of the method: as §1

[1] = tested on: Murine leukemia (L1210) cells; experiment: Cytostatic activity, L1210 cell proliferation; assay type: cell-based; conditions: mean ± SD of three experiments; highest concentration tested 250 µM; 2 days; read-out: Toxicity (IC50) L1210
Summary of the method: (§2)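 Test compounds, serially diluted, received an equal volume of cell suspension at 300,000–500,000 cells/mL. After 37°C incubation (2 days for L1210, 3 for CEM, 4 for HeLa), cells were enumerated by Coulter counting and 50%-inhibitory concentrations calculated per cell type.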

[2] = tested on: human T-lymphocyte (CEM) cells; experiment: Cytostatic activity, CEM cell proliferation; assay type: cell-based; conditions: mean ± SD of three experiments; highest concentration tested 250 µM; 3 days; read-out: Toxicity (IC50) CEM
Summary of the method: as §2

[3] = tested on: human cervix carcinoma (HeLa) cells; experiment: Cytostatic activity, HeLa cell proliferation; assay type: cell-based; conditions: mean ± SD of three experiments; highest concentration tested 250 µM; 4 days; read-out: Toxicity (IC50) HeLa
Summary of the method: as §2

[4] = tested on: L1210, CEM and HeLa cell lines; experiment: Cytostatic activity, average or summary over L1210, CEM and HeLa; assay type: cell-based; conditions: average of L1210, CEM and HeLa; read-out: Toxicity (IC50) Average
Summary of the method: as §2

[5] = tested on: S. aureus VSSA (ATCC 6538); experiment: MIC, broth microdilution, vancomycin-sensitive S. aureus (VSSA/MSSA, ATCC 6538); assay type: cell-based, Staphylococcus aureus; conditions: for MIC: Staphylococcus aureus VSSA, read-out: MIC; for MIC-fold improvement vs. vancomycin: VSSA, ratio of MIC of vancomycin and MIC of analogue
Summary of the method: as §1

S. aureus VISA/HIP5827 = experiment: MIC, broth microdilution, vancomycin-intermediate S. aureus VISA HIP5827; assay type: cell-based, Staphylococcus aureus; conditions: for MIC: Staphylococcus aureus VISA/HIP5827, read-out: MIC; for MIC-fold improvement vs. vancomycin: VISA/HIP5827, ratio of MIC of vancomycin and MIC of analogue
Summary of the method: as §1

S. aureus VRSA = experiment: MIC, broth microdilution, vancomycin-resistant S. aureus (VRSA); assay type: cell-based, Staphylococcus aureus; conditions: for MIC: Staphylococcus aureus VRSA, read-out: MIC; for MIC-fold improvement vs. vancomycin: VRSA, ratio of MIC of vancomycin and MIC of analogue
Summary of the method: as §1

MRSA KS2 = experiment: MIC, broth microdilution, MRSA KS2; assay type: cell-based, Staphylococcus aureus; conditions: for MIC-fold improvement vs. vancomycin: MRSA KS2, ratio of MIC of vancomycin and MIC of analogue; for MIC: Staphylococcus aureus MRSA KS2, read-out: MIC
Summary of the method: as §1

MRSA KS6 = experiment: MIC, broth microdilution, MRSA KS6; assay type: cell-based, Staphylococcus aureus; conditions: for MIC-fold improvement vs. vancomycin: MRSA KS6, ratio of MIC of vancomycin and MIC of analogue; for MIC: Staphylococcus aureus MRSA KS6, read-out: MIC
Summary of the method: as §1

MRSA KS89 = experiment: MIC, broth microdilution, MRSA KS89; assay type: cell-based, Staphylococcus aureus; conditions: for MIC-fold improvement vs. vancomycin: MRSA KS8, ratio of MIC of vancomycin and MIC of analogue; for MIC: Staphylococcus aureus MRSA KS8, read-out: MIC
Summary of the method: as §1

MRSA KS1 = experiment: MIC, broth microdilution, MRSA KS1; assay type: cell-based, Staphylococcus aureus; conditions: for MIC-fold improvement vs. vancomycin: MRSA KS1, ratio of MIC of vancomycin and MIC of analogue; for MIC: Staphylococcus aureus MRSA KS1, read-out: MIC
Summary of the method: as §1

SMILES	MIC (E. faecalis VSE 1) [µM]	MIC-fold improvement vs. vancomycin (E. faecalis VSE 1)	MIC (E. faecalis VRE 6) [µM]	MIC-fold improvement vs. vancomycin (E. faecalis VRE 6)	MIC (E. faecalis VRE 53) [µM]	MIC-fold improvement vs. vancomycin (E. faecalis VRE 53)	MIC (E. faecalis VRE 29) [µM]	MIC-fold improvement vs. vancomycin (E. faecalis VRE 29)	MIC (E. faecalis VRE 37) [µM]	IC50 [1] [µM]	IC50 [2] [µM]	IC50 [3] [µM]	IC50 [4] [µM]	MIC [5] [µM]	MIC-fold improvement vs. vancomycin [5]	MIC (S. aureus VISA/HIP5827) [µM]	MIC-fold improvement vs. vancomycin (S. aureus VISA/HIP5827)	MIC (S. aureus VRSA) [µM]	MIC-fold improvement vs. vancomycin (S. aureus VRSA)	MIC-fold improvement vs. vancomycin (MRSA KS2)	also measured
CCCCCc1ccc(C(=O)NCCCNC(=O)C2NC(=O)C3NC(=O)C(NC(=O)C4NC(=O)C(CC(N)=O)NC(=O)C(NC(=O)C(CC(C)C)NC)C(O)c5ccc(c(Cl)c5)Oc5cc4cc(c5OC4OC(CO)C(O)C(O)C4OC4CC(C)(N)C(O)C(C)O4)Oc4ccc(cc4Cl)C3O)c3ccc(O)c(c3)-c3c(O)cc(O)cc32)cc1 (stereo not drawn) [Vanc-49]	0.39 (≈ 0.655 µg/mL)	4	6.25 (≈ 10.5 µg/mL)	32	6.25 (≈ 10.5 µg/mL)	64	6.25 (≈ 10.5 µg/mL)	64	6.25 (≈ 10.5 µg/mL)	63 ± 8	36 ± 8	99 ± 1	66	0.20 (≈ 0.336 µg/mL)	4	0.39 (≈ 0.655 µg/mL)	16	0.39 (≈ 0.655 µg/mL)	256	4	MIC-fold improvement vs. vancomycin (E. faecalis VRE 37): 64; MIC (MRSA KS2): 0.20 µM (≈ 0.336 µg/mL); MIC-fold improvement vs. vancomycin (MRSA KS6): 4; MIC (MRSA KS6): 0.20 µM (≈ 0.336 µg/mL); MIC-fold improvement vs. vancomycin (MRSA KS89): 4; MIC (MRSA KS89): 0.20 µM (≈ 0.336 µg/mL); MIC-fold improvement vs. vancomycin (MRSA KS1): >8; MIC (MRSA KS1): <0.10 µM
CCCCOc1ccc(C(=O)NCCCNC(=O)C2NC(=O)C3NC(=O)C(NC(=O)C4NC(=O)C(CC(N)=O)NC(=O)C(NC(=O)C(CC(C)C)NC)C(O)c5ccc(c(Cl)c5)Oc5cc4cc(c5OC4OC(CO)C(O)C(O)C4OC4CC(C)(N)C(O)C(C)O4)Oc4ccc(cc4Cl)C3O)c3ccc(O)c(c3)-c3c(O)cc(O)cc32)cc1 (stereo not drawn) [Vanc-50]	0.39 (≈ 0.656 µg/mL)	4	6.25 (≈ 10.5 µg/mL)	32	12.5 (≈ 21 µg/mL)	32	12.5 (≈ 21 µg/mL)	32	12.5 (≈ 21 µg/mL)	> 250	86 ± 2	96 ± 4	144	0.39 (≈ 0.656 µg/mL)	2	0.78 (≈ 1.31 µg/mL)	8	0.78 (≈ 1.31 µg/mL)	128	4	MIC (MRSA KS2): 0.20 µM (≈ 0.336 µg/mL); MIC-fold improvement vs. vancomycin (MRSA KS6): 2; MIC (MRSA KS6): 0.39 µM (≈ 0.656 µg/mL); MIC-fold improvement vs. vancomycin (MRSA KS89): 2; MIC (MRSA KS89): 0.39 µM (≈ 0.656 µg/mL); MIC-fold improvement vs. vancomycin (MRSA KS1): 4; MIC (MRSA KS1): 0.20 µM (≈ 0.336 µg/mL)
CN[C@H](CC(C)C)C(=O)N[C@H]1C(=O)N[C@@H](CC(N)=O)C(=O)N[C@H]2C(=O)N[C@H]3C(=O)N[C@H](C(=O)N[C@H](C(=O)NCCNC(=O)/C=C/c4ccc(Cl)cc4Cl)c4cc(O)cc(O)c4-c4cc3ccc4O)[C@H](O)c3ccc(c(Cl)c3)Oc3cc2cc(c3O[C@@H]2O[C@H](CO)[C@@H](O)[C@H](O)[C@H]2O[C@H]2C[C@](C)(N)[C@H](O)[C@H](C)O2)Oc2ccc(cc2Cl)[C@H]1O [Vanc-51]	0.39 (≈ 0.659 µg/mL)	4	6.25 (≈ 10.6 µg/mL)	32	12.5 (≈ 21.1 µg/mL)	32	12.5 (≈ 21.1 µg/mL)	32	12.5 (≈ 21.1 µg/mL)	80 ± 13	82 ± 21	106 ± 21	89	0.39 (≈ 0.659 µg/mL)	2	0.78 (≈ 1.32 µg/mL)	8	0.39 (≈ 0.659 µg/mL)	256	4	MIC (MRSA KS2): 0.20 µM (≈ 0.338 µg/mL); MIC-fold improvement vs. vancomycin (MRSA KS6): 4; MIC (MRSA KS6): 0.20 µM (≈ 0.338 µg/mL); MIC-fold improvement vs. vancomycin (MRSA KS89): 4; MIC (MRSA KS89): 0.20 µM (≈ 0.338 µg/mL); MIC-fold improvement vs. vancomycin (MRSA KS1): 4; MIC (MRSA KS1): 0.20 µM (≈ 0.338 µg/mL)
CNC(CC(C)C)C(=O)NC1C(=O)NC(CC(N)=O)C(=O)NC2C(=O)NC3C(=O)NC(C(=O)NC(C(=O)NCCCNC(=O)c4nc5ccccc5[nH]4)c4cc(O)cc(O)c4-c4cc3ccc4O)C(O)c3ccc(c(Cl)c3)Oc3cc2cc(c3OC2OC(CO)C(O)C(O)C2OC2CC(C)(N)C(O)C(C)O2)Oc2ccc(cc2Cl)C1O (stereo not drawn) [Vanc-52]	0.78 (≈ 1.29 µg/mL)	2	25 (≈ 41.2 µg/mL)	8	25 (≈ 41.2 µg/mL)	16	50 (≈ 82.5 µg/mL)	8	50 (≈ 82.5 µg/mL)	≥ 250	> 250	104 ± 13	201	0.39 (≈ 0.643 µg/mL)	2	0.78 (≈ 1.29 µg/mL)	8	1.56 (≈ 2.57 µg/mL)	64	2	MIC-fold improvement vs. vancomycin (E. faecalis VRE 37): 8; MIC (MRSA KS2): 0.39 µM (≈ 0.643 µg/mL); MIC-fold improvement vs. vancomycin (MRSA KS6): 1; MIC (MRSA KS6): 0.78 µM (≈ 1.29 µg/mL); MIC-fold improvement vs. vancomycin (MRSA KS89): 1; MIC (MRSA KS89): 0.78 µM (≈ 1.29 µg/mL); MIC-fold improvement vs. vancomycin (MRSA KS1): 2; MIC (MRSA KS1): 0.39 µM (≈ 0.643 µg/mL)
CN[C@H](CC(C)C)C(=O)N[C@H]1C(=O)N[C@@H](CC(N)=O)C(=O)N[C@H]2C(=O)N[C@H]3C(=O)N[C@H](C(=O)N[C@H](C(=O)NCCNC(=O)/C=C/c4ccc(C)cc4)c4cc(O)cc(O)c4-c4cc3ccc4O)[C@H](O)c3ccc(c(Cl)c3)Oc3cc2cc(c3O[C@@H]2O[C@H](CO)[C@@H](O)[C@H](O)[C@H]2O[C@H]2C[C@](C)(N)[C@H](O)[C@H](C)O2)Oc2ccc(cc2Cl)[C@H]1O [Vanc-53]	0.78 (≈ 1.28 µg/mL)	2	12.5 (≈ 20.4 µg/mL)	16	12.5 (≈ 20.4 µg/mL)	32	25 (≈ 40.9 µg/mL)	16	25 (≈ 40.9 µg/mL)	176 ± 18	152 ± 43	176 ± 103	168	0.39 (≈ 0.638 µg/mL)	2	0.78 (≈ 1.28 µg/mL)	8	0.39 (≈ 0.638 µg/mL)	256	2	MIC-fold improvement vs. vancomycin (E. faecalis VRE 37): 16; MIC (MRSA KS2): 0.39 µM (≈ 0.638 µg/mL); MIC-fold improvement vs. vancomycin (MRSA KS6): 2; MIC (MRSA KS6): 0.39 µM (≈ 0.638 µg/mL); MIC-fold improvement vs. vancomycin (MRSA KS89): 2; MIC (MRSA KS89): 0.39 µM (≈ 0.638 µg/mL); MIC-fold improvement vs. vancomycin (MRSA KS1): 2; MIC (MRSA KS1): 0.39 µM (≈ 0.638 µg/mL)
